The test in a line: NCOA3 reporter inhibition potency – cell-based, luminescence, counter-screen for SRC1 inhibitor project, dose response (AID 602234).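 Further: HEK293 cells co-transfected with pGL4.31 reporter and pBIND-SRC3 fusion vector; potency for inhibition of reporter luminescence with Gossypol as full inhibition.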 Particulars: transfected HEK293 cells, counter-screen luciferase reporter. (A counterscreen serves to expose hits that act by an unwanted route or on another target.)

Active and inactive are the calls of the source. How the calls were made is not given here.

Take `O=C(Nc1ccncc1)c1ccccc1[N+](=O)[O-]`: the IC50 is 4.77 µM.

Turning to `NC(=S)NN=Cc1ccc(OC(=O)COc2cc(Cl)c(Cl)cc2Cl)cn1`, the IC50 was 7.06 µM.

In the case of `Cc1ccc(S(=O)(=O)Nc2c(NC3CCCCC3)c3ccccc3oc2=O)c(C)c1`, the IC50 was 23.1 µM (inactive).

`N#Cc1cc2ccncc2c2ccccc12`: the IC50 was 4.76 µM.

`Cn1c(=O)c2[nH]c(COc3ccc(C(C)(C)C)cc3)nc2n(C)c1=O`: the IC50 is 3.85 µM.

Take `NNC(=O)c1cc2ccccc2cc1O`: the IC50 was 1.57 µM.

On to `CCOc1cccc(/C=N/NC(=O)c2cccnc2)c1O`, for which the IC50 was 9.67 µM.

Turning to `O=C(Nc1c(-c2ccccc2)[nH][nH]c1=O)c1cccc(C(F)(F)F)c1`, the IC50 was > 35.8 µM (inactive).

As for `N#Cc1c(-c2ccccc2)c(C#N)c2nc3ccccc3n2c1N`, the IC50 was 21.9 µM (inactive).

Consider `CCCCC(=O)Nc1cccn2ncnc12`, for which the IC50 is 10.9 µM (inactive).

Take `O=C(Nc1cccc2c1CCCC2)c1cc([N+](=O)[O-])ccc1Cl`: the IC50 is 3.47 µM.

Regarding `CC(=O)/C(N=Nc1ccc2c(c1)OCCO2)=C(\C)O`, the IC50 is 3.11 µM.

In the case of `O=C(Nc1cccc(C(F)(F)F)c1)Nc1nnc([C@@H]2C[C@H](O)[C@@H](CO)O2)s1`, the IC50 was 4.17 µM.

For `Cc1cc(=O)[nH]c(Nc2cccc(Br)c2)n1`, the IC50 is 6.81 µM.

As for `CCCS(=O)(=O)Nc1ccc(Nc2c3ccccc3nc3ccccc23)c(OC)c1`, the IC50 was 1.01 µM.

With `CCCCCCCC[n+]1c(C)n(-c2ccccc2)c2ccc(NC(C)=O)cc21`, the IC50 was 4.36 µM.

Regarding `COc1ccc(-c2ncncc2-c2ccccc2)c(O)c1`, the IC50 was 4.24 µM.

On to `Cc1cc(/C=C2\Cc3ccccc3C2=O)c(C)n1-c1ccccc1`, for which the IC50 was 8.76 µM.

As to `CN(C)C(=O)c1ccc(-c2n[nH]c(=O)c3ccccc23)cc1`, the IC50 is 5.67 µM.

As to `CC[C@@]1(O)C(=O)OCc2c1cc1n(c2=O)Cc2cc3c(NC(=O)CN)cccc3nc2-1`, the IC50 was 1.05 µM.

On to `O=[N+]([O-])c1cccc2c1ccc1ncccc12`, for which the IC50 was 10.3 µM (inactive).

Regarding `Cc1ccc(OCC(=O)c2cc(C)n(Cc3cccs3)c2C)c([N+](=O)[O-])n1`, the IC50 is 5.23 µM.

As to `CC(C)Cn1c(N)c(C(=O)COC(=O)c2cc3ccccc3cc2O)c(=O)n(C)c1=O`, the IC50 is > 12 µM (inactive).

In the case of `Fc1ccc(CSc2nnc(-c3ccncc3)o2)cc1`, the IC50 was 2.69 µM.

In the case of `Nc1ncccc1C(=O)OCC(=O)N1CCN(S(=O)(=O)c2ccc(Cl)cc2)CC1`, the IC50 was 8.27 µM.

As for `Cc1ccc2nc(C(F)(F)F)c(C#N)c(N)c2c1`, the IC50 is 5.13 µM.

Regarding `CCOC(=O)c1c(NC(=O)C(C)N2CCN(C(=O)c3ccco3)CC2)sc2c1CCCC2` (stereo not drawn), the IC50 was 9.89 µM.

As for `O=C(N/N=C/c1ccc(O)cc1O)/C(=C/c1ccccc1)CCO`, the IC50 was 5.37 µM.

For the molecule `COc1ccc(-n2cnc(N)c2C(=O)c2cccc([N+](=O)[O-])c2)cc1`, the IC50 is 3.87 µM.

For the molecule `COc1cc([C@@H]2c3cc4c(cc3[C@@H](O[C@@H]3O[C@@H]5CO[C@@H](C)O[C@H]5[C@H](O)[C@H]3O)[C@H]3COC(=O)[C@H]23)OCO4)cc(OC)c1O`, the IC50 was 0.375 µM.

For `Nc1ccn([C@@H]2O[C@H](CO)[C@@H](O)C2O)c(=O)n1` (stereo partly drawn), the IC50 was 7.53 µM.

As to `COc1cccc(CNc2ncnc3ccc(-c4c(C)noc4C)cc23)c1`, the IC50 was 9.92 µM.

In the case of `COc1ccc2c(c1)-c1c(ssc1=S)C(C)(C)N2C(=O)CSC1=NCCS1`, the IC50 is 11.2 µM (inactive).

For `O=C(Nc1nc(-c2ccccn2)cs1)c1cccc(-n2cnnn2)c1`, the IC50 was 21.7 µM (inactive).

As for `O=C1NCCc2c1[nH]c1ccc([N+](=O)[O-])cc21`, the IC50 was 8.25 µM.

With `COc1ccc2c(C#N)c3ccccn3c2c1`, the IC50 is 11.2 µM (inactive).

For `COc1ccc(-n2cnc3c(sc4nccc(N(C)C)c43)c2=O)cc1`, the IC50 was 11 µM (inactive).

`CCOc1cc(C(N)=O)cc(Br)c1OC`: the IC50 was 6.86 µM.

Regarding `COc1ccc2ncn(-c3ccccc3)c2c1`, the IC50 was 2.99 µM.

`CCCc1cc(C(=O)N(C)CC(=O)Nc2ccc(OCC)c(OCC)c2)sc1C`: the IC50 was > 35.9 µM (inactive).

Turning to `Cc1sc2ncnc(N3CCC(C(=O)N(C)CC(=O)Nc4cccc(F)c4)CC3)c2c1C`, the IC50 was 8.1 µM.

Consider `c1cc2[nH]snc2c2nc(C3CC3)nc12`, for which the IC50 was 1.2 µM.

In the case of `CC(C)(C)NC(=O)C1(C)CCC(=O)N1CCCn1ccnc1` (stereo not drawn), the IC50 is 4.51 µM.

For the molecule `COc1ccc(Nc2ncnc3ccc(Br)cc23)c(OC)c1`, the IC50 is 2.75 µM.

For `COc1cc(/C=C2\SC(N)=NC2=O)cc(OC)c1`, the IC50 was 7.14 µM.

Regarding `Cc1ccc(O)c(Nc2ncnc3ccc([N+](=O)[O-])cc23)c1`, the IC50 is 3.59 µM.

Turning to `O=C(CCC(=O)Nc1ccc(Br)cc1)N/N=C/c1ccccc1O`, the IC50 is 4.33 µM.

With `O=C(CCl)NC(Cc1ccccc1)c1ccccc1` (stereo not drawn), the IC50 is 6.42 µM.

`CC1CCCCN1c1ncnc2ccccc12` (stereo not drawn): the IC50 is 8.39 µM.

With `CC1CC(C)C(=NNC(N)=O)C(C(O)CC2CCC(=O)NC2=O)C1` (stereo not drawn), the IC50 was 7.99 µM.

In the case of `COc1ccccc1NS(=O)(=O)c1cccc(NC(=O)c2cncc(Br)c2)c1`, the IC50 is 7.71 µM.

Regarding `OCCN(CCO)CC(O)COc1ccc(C23CC4CC(CC(C4)C2)C3)cc1` (stereo not drawn), the IC50 was 12.1 µM (inactive).

As for `O=C(CCl)N1N=C(c2ccco2)CC1c1cccs1` (stereo not drawn), the IC50 was 0.694 µM.

With `COc1ccc2c(=O)cc(-c3ccncc3)oc2c1OC`, the IC50 was 3.16 µM.

Turning to `CC(=O)C1=C(C)NC2=C(C(=O)CC(C)(C)C2)C1C` (stereo not drawn), the IC50 is 7.94 µM.

With `CNc1cccnc1C=NNC(N)=S`, the IC50 was 0.522 µM.

Consider `OCCN1CCN(C(=S)c2ccc(-c3ccccc3)cc2)CC1`, for which the IC50 was 1.28 µM.

For the molecule `c1cnc2ccc(-n3ccnc3)cc2c1`, the IC50 was 7.69 µM.

As for `O=C(CCCOc1ccc(Cl)cc1Cl)N/N=C/c1ccccc1O`, the IC50 was 6.32 µM.

As to `Cc1cccn2c(=O)c3cc(C(=O)NCCN4CCOCC4)c(=N)n(Cc4cccnc4)c3nc12`, the IC50 is 12.7 µM (inactive).

`c1ccc(-c2csc3ncnc(NCCN4CCOCC4)c23)cc1`: the IC50 is 8.04 µM.

Regarding `COc1cc(C(=O)N/N=C(\c2ccccc2)c2ccccn2)cc(OC)c1OC`, the IC50 is 9.58 µM.

For `O=C(CCC1CCCC1)Nc1ccc(C(=O)NCc2cccnc2)cc1`, the IC50 is 34.2 µM (inactive).

As to `CCN(C(=O)c1cccc(S(=O)(=O)N(C)C)c1)C12CC3CC(CC(C3)C1)C2`, the IC50 is 13.8 µM (inactive).

Consider `Cc1c(C(=O)N/N=C/C(C)C)[nH]c2ccc([N+](=O)[O-])cc12`, for which the IC50 is 17 µM (inactive).

Consider `CCCCCOc1ccc(/C=C/c2c([N+](=O)[O-])c(=O)n(C)c(=O)n2C)cc1`, for which the IC50 was 4.32 µM.

`COC(CN(C(=O)CCl)C(C(=O)NC1CCCCC1)c1ccccc1C)OC` (stereo not drawn): the IC50 is 3.76 µM.

In the case of `COc1ccc(Cc2nnc(SCc3ccc([N+](=O)[O-])cc3)o2)cc1`, the IC50 is 5.53 µM.

As to `Cc1ccc(N=c2c([N+](=O)[O-])nn(-c3ccc4c(c3)OCCO4)n2O)cc1F`, the IC50 was 3.24 µM.

Turning to `C=CCc1ccccc1OCC(=O)N/N=C/c1ccc(OC(C)=O)cc1OC(C)=O`, the IC50 was 22.4 µM (inactive).

`CCc1ccc(-c2nc(CSCC(=O)NCc3ccco3)c(C)o2)cc1`: the IC50 is 6.43 µM.

For the molecule `Nc1ccn(C2OC(CO)C(O)C2O)c(=O)n1` (stereo not drawn), the IC50 was 6.77 µM.

Regarding `CC(NC(=O)COC(=O)c1cccs1)c1ccccc1` (stereo not drawn), the IC50 is > 35.9 µM (inactive).

With `CN(C)C=Nc1c(C(=O)c2ccccc2)sc2nccc(N(C)C)c12`, the IC50 was 6.82 µM.

With `O=C(O)c1ccccc1-c1c2cc(I)c(=O)c(I)c-2oc2c(I)c(O)c(I)cc12`, the IC50 was > 35.9 µM (inactive).

`O=C(c1ccncc1)N(Cc1cc2ccccc2[nH]c1=O)C1CCCCC1`: the IC50 was 5.34 µM.

As to `Cc1nc2sc(C(N)=O)c(N)c2c(C)c1CC(=O)c1ccccc1`, the IC50 was 2.63 µM.

With `COc1ccc(-c2cc(=O)oc3c(C)c(O)c(CN(C)C)cc23)cc1`, the IC50 is 12.1 µM (inactive).

For the molecule `COc1cc(C2c3cc4c(cc3C(OC3OC5COC(c6cccs6)OC5C(O)C3O)C3COC(=O)C23)OCO4)cc(OC)c1O` (stereo not drawn), the IC50 is 0.0913 µM.

For `CCN(c1ccccc1)S(=O)(=O)c1cc(C(=O)Nc2ccc(Br)cc2)ccc1F`, the IC50 was 6.6 µM.

Take `COC(=O)N(NC(=O)C(O)(CCC(C)C)CCC(C)C)c1ccccc1`: the IC50 was > 35.9 µM (inactive).

Turning to `CCc1nc(N)nc(N)c1-c1ccc(Cl)c([N+](=O)[O-])c1`, the IC50 is 0.95 µM.

For `c1ccc(-c2nnc(-c3ccccn3)nc2NC2CCCCC2)cc1`, the IC50 was 2.89 µM.

On to `CCn1ccnc1CN(C)Cc1cn[nH]c1-c1ccc(F)cc1F`, for which the IC50 was 8.02 µM.

As for `COc1ccc(CNc2ncc(-c3ccc(F)cc3)n2C)c2ccccc12`, the IC50 was 11.6 µM (inactive).

Take `CC(=O)N1CCN(c2ccc(Oc3ncnc4sccc34)cc2)CC1`: the IC50 is 4.79 µM.

Take `CCCCN(CCCC)c1ncnc2nc[nH]c12`: the IC50 was 2.14 µM.

For `O=C(CCCc1nc(-c2ccccc2Cl)no1)NC1CCCC1`, the IC50 was 3.59 µM.

For the molecule `O=C(N/N=C/c1ccccc1O)/C(=C/c1ccccc1)CCO`, the half-maximal inhibitory concentration (IC50) was 5.52 µM.

Turning to `Nc1ccc(-c2cc3ccccc3oc2=O)cc1`, the IC50 is 3.62 µM.

With `CNc1ncnc(Sc2nc(N)nc3nc[nH]c23)c1[N+](=O)[O-]`, the IC50 is 2.81 µM.

For `CCn1c(Oc2cccc(Br)c2)nc2c1c(=O)n(C)c(=O)n2C`, the IC50 is 17 µM (inactive).

For the molecule `NS(=O)(=O)c1ccc(Nc2nc(-c3cccnc3)cs2)cc1`, the IC50 was 6.23 µM.

As for `Cc1nc2c(-c3ccc(F)cc3)cnn2c(N)c1-c1ccccc1`, the IC50 was 11.4 µM (inactive).

Turning to `COc1ccc(/C=C2\CC/C(=C\c3ccc(OC)c(OC)c3)C2=O)cc1OC`, the IC50 is 5.96 µM.

On to `CCC(C)(C)n1nnnc1CN1CCC(n2c(C)nc3cc(C(F)(F)F)ccc32)CC1`, for which the IC50 is > 35.9 µM (inactive).

As for `COc1cc2c(cc1OC)C(NC(=O)C(F)(F)F)CNC2=O` (stereo not drawn), the IC50 is 2.62 µM.

As to `CCn1c2ccccc2c2cnc(N=CN(C)C)c(C#N)c21`, the IC50 is 11.3 µM (inactive).

As usually defined, the IC50 is the point on the concentration scale where inhibition reaches its midpoint.
